The values that follow come from patent US20180171411A1, “GFRalpha1 AS A BIOMARKER FOR CISPLATIN-INDUCED CHEMORESISTANCE AND METASTASIS” (THE BOARD OF REGENTS OF THE UNIVERSITY OF TEXAS SYSTEM, priority 2015, published 2018).

SMILES strings stand for the structures.

One test concerns MG-63 cells. Kind of test: Acridine orange staining of acidic vesicular organelles (AVOs). The test is classed as cell-based, human. As to conditions: control MG-63 cells; cisplatin 20 μM, 24 hr. On the procedure:
FIG. 3. GFRα1-induced autophagy enhances the chemoresistance of osteosarcoma cells induced by cisplatin. (a) Control and GFRα1-deficient MG-63 cells were transiently transfected with a mRFP-GFP tandem fluorescent-tagged LC3 (mRFP-GFP-LC3) vector and then treated with cisplatin (20μM) for 24 hr. Left, representative images of RFP-LC3 and GFP-LC3 puncta. Scale bar, 20 μm. Right, quantitative analysis of the number of yellow puncta and the number of RFP-LC3 puncta in the combined images. The values are represented as a mean±s.d.m. (n=3). ** denotes p<0.05 by t-test. (b) Control and GFRα1-deficient MG-63 cells were treated with cisplatin (20 μM) for 24 hr and then stained with acridine orange. […] Bottom, quantitative analysis of the number of AVOs. […] (c) Control and GFRα1-deficient MG-63 cells were treated with cisplatin (20 μM) for 24 hr and then analyzed by TEM. Top, representative images of autophagic vacuoles (yellow arrows) detected after cisplatin treatment in control MG-63 cells. […] Bottom, quantitative analysis of the number of autophagic vacuoles. […] (e) Quantitative analysis of the number of yellow puncta and the number of RFP-LC3 puncta in control and GFRα1-overexpressing MG-63 cells. […] Bottom, quantitative analysis of the number of AVOs. […] (h) Control and GFRα1-overexpressing MG-63 cells were treated with cisplatin (20 μM) for 24 hr and then analyzed by TEM. […]

In test [1] the test system is GFRα1 expression in MG-63 and U-2 OS cells. Kind of test: Immunoblot of GFRα1 expression after chemotherapeutic agents. As to conditions: doxorubicin 5 μM, cisplatin 20 μM, methotrexate 1 mM, 24 hr. The test is classed as cell-based, human. How it is done: FIG. 1. Cisplatin induces GFRα1 expression in osteosarcoma cells. (a-c) Immunoblot analysis of osteosarcoma cell lysates with antibodies specific for GFRα1 and β-actin. (a) MG-63 and U-2 OS cells were treated with doxorubicin (5 μM), cisplatin (20 μM), or methotrexate (1 mM) for 24 hr. Immunoblot analysis of GFRα1 (left) and quantification of GFRα1 expression (right) after treatment of chemotherapeutic agents. (b) MG-63 and U-2 OS cells were treated with different concentrations of cisplatin for 24 hr. (c) MG-63 and U-2 OS cells were treated with cisplatin (20 μM) and collected at the indicated time. (d and e) Quantitative real-time PCR of GFRα1 mRNA expression after cisplatin treatment. Representative images (top) and quantitative analysis (bottom) of GFRα1 mRNA expression. The values are presented as a mean±s.d.m (n=3). ** denotes p<0.05 by t-test. (d) MG-63 and U-2 OS cells were treated with different concentrations of cisplatin for 24 hr. (e) MG-63 and U-2 OS cells were treated with cisplatin (20 μM) and collected at the indicated time.
Immunoblotting. Cells were washed with PBS and lysed in RIPA Buffer (Pierce, Rockford, Ill.). The protein content was determined using a dye-binding microassay (Bio-Rad, Hercules, Calif.), and 10-50 μg protein per lane was electrophoresed on 4-12% SDS polyacrylamide gels. Proteins were blotted onto Hybond ECL membranes (Amersham Pharmacia Biotech, Piscataway, N.J.). Two protein ladders were used for molecular weight determination (GenDEPOT, Barker, Tex.). The blotted proteins were detected using an enhanced chemiluminescence detection system (iNtRON, Seoul, Korea). Data were quantified and analyzed with Image-J software.

With `N.N.[Cl][Pt][Cl]` [cisplatin, Cis-Diamineplatinum(II) dichloride], the AVO-positive cells result in the test on MG-63 cells was “significantly increased”. In addition, the “level of GFRα1 expression” value in test [1] was “significantly increased”.
